# Laboratory results reported in US6271238A, “Acetamide derivatives and protease inhibitors” (Nippon Kayaku Kabushiki Kaisha, priority 1996, dated 2001).
# Structures can show the parent of a compound that is named as a salt.
# How the values were obtained:
# Assay type in all cases: biochemical
# [1] = molecular target: T1, human chymase (Homo sapiens, UniProt P23946); assay: Inhibitory activity on human chymase (angiotensin I as substrate); settings: for IC50: substrate angiotensin I, pH 8.0, 37° C., 60 min, read-out: Human Chymase (IC50: nM), 50% inhibitory concentration
# T1 construct: 60 g human tonsils were finely divided by scissors and a scalpel; from tissue; host or cells: human tonsils
# T1 sequence (P23946 22-247): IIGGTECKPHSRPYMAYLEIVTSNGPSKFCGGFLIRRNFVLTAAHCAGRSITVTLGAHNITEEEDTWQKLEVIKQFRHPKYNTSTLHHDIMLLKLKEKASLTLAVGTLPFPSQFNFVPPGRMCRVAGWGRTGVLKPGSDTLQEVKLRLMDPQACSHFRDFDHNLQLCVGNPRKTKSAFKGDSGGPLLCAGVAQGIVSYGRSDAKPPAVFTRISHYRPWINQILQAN
# From the text: It is known that chymase is present in tissues of various animals, and its isolation and purification methods are described in Anal. Biochem., 137, 449 (1984) and FEBS Letters, 323, 119 (1993). In the present invention, chymase was purified by the methods described in these literatures, and the present compounds were examined for inhibitory activity on chymase, inhibitory action on activation of mast cells and eosinophils, and pharmacological action in animals. Hereinafter, specific methods are described. 50 g rat tongue was finely divided by scissors and a scalpel, suspended in 0.1 M phosphate buffer (pH 8.0), and disrupted by a Polytron homogenizer for 5 minutes to prepare a crude chymase enzyme solution. […] The supernatant was applied to an octyl Sepharose 4B column (40×100 mm) previously equilibrated with 0.1 M phosphate buffer (pH 8.0) containing 2 M sodium chloride and 5% ammonium sulfate, and the protein was eluted with a linear concentration gradient of from 2 M to 0 M sodium chloride. An active fraction decomposing succinyl leucyl leucyl valyl tyrosyl methylcumarylamide (hereinafter referred to as the synthetic chymase substrate, a product of Peptide Kenkyusho) was recovered and concentrated and this product was used as a purified rat chymase in the following activity measurement. (B) Preparation of human chymase 60 g human tonsils were finely divided by scissors and a scalpel, suspended in 0.1 M phosphate buffer (pH 8.0), and A-disrupted by a Polytron homogenizer for 5 minutes to prepare a crude chymase enzyme solution. It was centrifuged at 22000×g for 30 minutes, and the precipitates were used as a chymase enzyme fraction. […] The supernatant was concentrated by an ultrafiltration membrane, then applied to […] column (6.0×300 mm), and eluted with 0.1 M phosphate buffer (pH 8.0). An active fraction decomposing the synthetic chymase substrate was recovered and concentrated and this product was used as a purified human chymase in the following activity measurement. (D) Measurement of inhibitory activity on chymase (b) Measurement using angiotensin I as substrate The inhibitory activity on the human chymase and dog chymase was measured using angiotensin I (Peptide Kenkyusho) as substrate besides the above synthetic substrate. […] After the end of the reaction, produced angiotensin II was immediately measured by high performance liquid chromatography to determine the activity of the chymase to calculate 50% inhibitory concentration (IC50: nM). The test was conducted several times. Chymase was prepared for each test in the manner described above. The compounds examined were compounds prepared in the above-described examples. […] 50% Inhibitory concentration (IC50: nM) of each compound toward rat chymase, dog […] human […] Substrate: Succinyl leucyl leucyl valyl tyrosyl methylcoumarylamide (for rat […] angiotensin I (for human and dog chymase)
# [2] = molecular target: T2, Human thrombin (Homo sapiens, UniProt P00734); assay: Inhibitory activity on proteases other than chymase: human thrombin
# T2 construct: human thrombin
# Procedure: (§1) (E) Measurement of inhibitory activity on proteases other than chymase
# (§2) The inhibitory activity of the present compounds on human elastase, human cathepsin G, human urokinase, human thrombin, human plasmin, and human factor Xa was determined using their corresponding synthetic substrates in the same manner as for chymase. All the above proteases were those commercially available from Boehringer Mannheim or purified by a combination of known methods. The synthetic substrates were those produced by Peptide Renkyusho. The synthetic substrates for the respective proteases are as follows.
# Human thrombin Benzyloxycarbonyl asparginyl prolyl arginyl
# (§3) The test was conducted several times. Chymase was prepared for each test in the manner described above. The compounds examined were compounds prepared in the above-described examples.
# [3] = molecular target: T3, Human factor Xa (Homo sapiens, UniProt P00742); assay: Inhibitory activity on proteases other than chymase: human factor Xa
# T3 construct: human factor Xa
# T3 sequence (P00742 235-488 limits assumed): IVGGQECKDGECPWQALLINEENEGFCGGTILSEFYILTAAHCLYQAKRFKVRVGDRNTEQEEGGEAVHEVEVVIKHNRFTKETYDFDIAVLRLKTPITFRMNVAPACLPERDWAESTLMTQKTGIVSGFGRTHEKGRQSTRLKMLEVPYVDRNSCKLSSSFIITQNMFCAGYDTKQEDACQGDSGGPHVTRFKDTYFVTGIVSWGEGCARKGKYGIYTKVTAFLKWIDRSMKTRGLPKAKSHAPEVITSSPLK
# T3 sequence (P00742 41-179 partner limits assumed): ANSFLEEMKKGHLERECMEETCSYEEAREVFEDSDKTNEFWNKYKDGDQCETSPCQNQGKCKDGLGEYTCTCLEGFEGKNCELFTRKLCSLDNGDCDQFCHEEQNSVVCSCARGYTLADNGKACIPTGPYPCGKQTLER
# Procedure: as §1, §2
# Human factor Xa Phenylmethyloxycarbonyl pyridyl glycyl arginyl
# as §3
# [4] = molecular target: T4, dog chymase (Canis lupus familiaris, UniProt P21842); assay: Inhibitory activity on dog chymase (angiotensin I as substrate); settings: pH 8.0, 37° C., 60 min, read-out: Dog Chymase (IC50: nM), 50% inhibitory concentration
# T4 construct: 60 g dog heart was finely divided by scissors and a scalpel; from tissue; host or cells: dog heart
# T4 sequence (P21842 22-249): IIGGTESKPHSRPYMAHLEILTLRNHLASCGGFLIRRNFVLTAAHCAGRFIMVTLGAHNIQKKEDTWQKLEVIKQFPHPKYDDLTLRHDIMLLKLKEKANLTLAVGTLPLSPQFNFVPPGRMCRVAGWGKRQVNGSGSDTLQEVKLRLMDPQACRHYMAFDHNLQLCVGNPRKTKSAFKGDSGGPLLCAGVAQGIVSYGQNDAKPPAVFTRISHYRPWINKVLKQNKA
# From the text: It is known that chymase is present in tissues of various animals, and its isolation and purification methods are described in Anal. Biochem., 137, 449 (1984) and FEBS Letters, 323, 119 (1993). In the present invention, chymase was purified by the methods described in these literatures, and the present compounds were examined for inhibitory activity on chymase, inhibitory action on activation of mast cells and eosinophils, and pharmacological action in animals. Hereinafter, specific methods are described. (c) Preparation of dog chymase 60 g dog heart was finely divided by scissors and a scalpel, suspended in 0.1 M phosphate buffer (pH 8.0), and disrupted by a Polytron homogenizer for 5 minutes to prepare a crude chymase enzyme solution. It was centrifuged at 22000×g for 15 minutes, and the precipitates were used as a chymase enzyme fraction. […] An active fraction decomposing the synthetic chymase substrate was recovered and concentrated and this product was used as a purified dog chymase in the following activity measurement. (D) Measurement of inhibitory activity on chymase (b) Measurement using angiotensin I as substrate The inhibitory activity on the human chymase and dog chymase was measured using angiotensin I (Peptide Kenkyusho) as substrate besides the above synthetic substrate. […] After the end of the reaction, produced angiotensin II was immediately measured by high performance liquid chromatography to determine the activity of the chymase to calculate 50% inhibitory concentration (IC50: nM). The test was conducted several times. Chymase was prepared for each test in the manner described above. The compounds examined were compounds prepared in the above-described examples. […] 50% Inhibitory concentration (IC50: nM) of each compound toward rat chymase, dog […] human […] Substrate: Succinyl leucyl leucyl valyl tyrosyl methylcoumarylamide (for rat […] angiotensin I (for human and dog chymase)
SMILES,"inhibitory activity on human chymase, in words [1]",IC50 [1] [nM],IC50 [2] [nM],IC50 [3] [nM],IC50 [4] [nM]
"CC(C)(C)OC(=O)Nc1cnc(-c2ccccc2)n(CC(=O)NC(Cc2ccccc2)C(=O)C(=O)CCCn2ccccc2=O)c1=O (centres unmarked) [Compound 72, 2-(5-t-Butyloxycarbonylamino-6-oxo-2-phenyl-1,6-dihydropyrimidine-1-yl)-N-{2,3-dioxo-6-(2-oxo-1,2-dihydropyridine-1-yl)-1-phenylmethyl}hexylacetamide]",strong inhibitory activity on human chymase,90,> 10000,> 10000,1.6
"CC(=O)Nc1cnc(-c2ccccc2)n(CC(=O)NC(Cc2ccccc2)C(=O)C(=O)CCCOc2ccccn2)c1=O (centres unmarked) [Compound 80, 2-(5-Acetylamino-6-oxo-2-phenyl-1,6-dihydropyrimidine1-yl)-N-{2,3-dioxo-1-phenylmethyl-6-(-2-pyridyloxy)}hexyl-acetamide]",strong inhibitory activity on human chymase,0.9,> 10000,> 10000,0.35
"O=CNc1cnc(-c2ccccc2)n(CC(=O)NC(Cc2ccccc2)C(=O)C(=O)CCCOc2ccccn2)c1=O (centres unmarked) [Compound 79, 2-(5-Formylamino-6-oxo-2-phenyl-1,6-dihydropyrimidine-1-yl)-N-{2,3-dioxo-1-phenylmethyl-6-(2-pyridyloxy)}hexylacetamide]",strong inhibitory activity on human chymase,2.4,> 10000,> 10000,0.32
"O=C(Cn1c(-c2ccccc2)ncc(NS(=O)(=O)NCc2ccccc2)c1=O)NC(Cc1ccccc1)C(=O)C(=O)CCCOc1ccccn1 (centres unmarked) [Compound 82, 2-(5-Benzylaminosulfonylamino-6-oxo-2-phenyl-1,6-dihydropyrimidine-1-yl)-N-{2,3-dioxo-1-phenylmethyl-6-(2-pyridyloxy)}hexylacetamide]",strong inhibitory activity on human chymase,0.74,> 10000,> 10000,0.14
"Nc1cnc(-c2ccccc2)n(CC(=O)NC(Cc2ccccc2)C(=O)C(=O)CCCn2ccccc2=O)c1=O (centres unmarked) [Compound 73, 2-(5-Amino-6-oxo-2-phenyl-1,6-dihydropyrimidine-1-yl)-N-{2,3-dioxo-1-phenylmethyl-6-(2-oxo-1,2-dihydropyridine-1-yl)}hexylacetamide hydrochloride]",strong inhibitory activity on human chymase,46,–,–,2.9
"CC(=O)C(=O)C(Cc1cccc(F)c1)NC(=O)Cn1c(-c2ccccc2)ncc(N)c1=O (centres unmarked) [Compound 52, 2-(5-Amino-6-oxo-2-phenyl-1,6-dihydropyrimidine-1-yl)-N-{1-(3-fluorophenyl)methyl-2,3-dioxo}butylacetamide]",–,120,> 10000,> 10000,27
Nc1cnc(-c2ccccc2)n(CC(=O)NC(Cc2ccccc2)C(=O)C(=O)CCCc2ccccc2)c1=O (centres unmarked) [Compound 40],–,190,> 10000,> 10000,13
"CC(C)(C)OC(=O)Nc1cnc(-c2ccccc2)n(CC(=O)NC(Cc2ccccc2)C(=O)C(=O)CCCOc2ccccn2)c1=O (centres unmarked) [Compound 74, 2-(5-t-Butyloxycarbonylamino-6-oxo-2-phenyl-1,6-dihydropyrimidine-1-yl)-N-{2,3-dioxo-6-(2-pyridyloxy)-1-phenylmethyl}hexylacetamide]",strong inhibitory activity on human chymase,11,> 10000,> 10000,0.92
CCOC(=O)CCCC(=O)C(=O)C(Cc1cccc(F)c1)NC(=O)Cn1c(-c2ccccc2)ncc(N)c1=O (centres unmarked) [Compound 54],strong inhibitory activity on human chymase,36,–,–,3.6
CCCCC(=O)C(=O)C(Cc1ccccc1)NC(=O)Cn1c(-c2ccccc2)ncc(N)c1=O (centres unmarked) [Compound 44],–,146,–,–,16
